# Patent US20150290227A1, “USE OF HAMAMELITANNIN FOR THE TREATMENT OF STAPHYLOCOCCAL INFECTIONS” (priority 2006, published 2015)
# Several values for one entry are separate records, joined by “and”; a condition that tells them apart may be missing. Identical values can stand only once.
# Assays:
# RNAIII = RNAIII production in S. aureus cells containing rnaiii::blaZ fusion construct, measured as β-lactamase activity; type: cell-based; details: for inhibition of RNAIII synthesis (in words): 0-50 μg
# Procedure: RNAIII levels were determined as β-lactamase activity (reporter gene product) and denoted as Vmax.
# To test if hamamelitannin is a quorum sensing inhibitor and thus suppresses RNAIII synthesis, 2×10^7 cells were incubated with increasing amounts (0-50 μg) of hamamelitannin (or RIP). RNAIII levels were measured as β-lactamase activity as a reporter gene product by the addition of nitrocefin as substrate. […] Hamamelitannin (2′,5-di-O-galloyl hamamelose) was purchased from Chromadex, Inc. (93% purity, as assessed by HPLC by the manufacturer). Hamamelitannin was dissolved in water at 25 mg/ml and stored at −70° C. until use.
# S. aureus cells = assay: S. aureus cell attachment in vitro in polystyrene plates; type: cell-based; details: for reduction of cell attachment (in words): 0-50 μg, 3 hrs at 37° C., OD 595 nm; for amount most effective in reducing cell attachment: converted dose
# Procedure: Attached cells were stained and OD595nm was determined.
# To test for the effect of hamamelitannin on bacterial attachment in vitro, S. aureus cells were incubated with 0-50 μg hamamelitannin or RIP in polystyrene plates for 3 hrs at 37° C. Adherent bacteria were stained with methylene blue and OD determined at 595 nm.
# MRSE [1] = assay: Rat graft-associated infection, bacteria pre-incubated with agent, MRSE challenge; type: in vivo, S. epidermidis; details: for amount that could prevent an infection: infection caused by 2×10^7 CFU MRSE, rat graft
# Procedure: (§1) FIG. 6 is a graph presentation of the effectiveness of bacterial graft-associated infection inhibition by hamamelitannin and RIP against challenge by methicillin resistant S. aureus and S. epidermidis (MRSA and MRSE) using pre-incubation.
# (§2) To measure the amount of hamamelitannin necessary to prevent device-associated infections, bacteria (2×10^7 MRSA or MRSE) were pre-incubated with increasing amounts of hamamelitannin for 30 min at room temperature. Grafts were implanted and rats were challenged with the pre-incubated bacteria. Seven days later the graft was removed and bacterial load determined. […] No bacteria was found when either MRSA or MRSE were pre-incubated with >20 μg hamamelitannin.
# (§3) In the testing reflected in FIG. 6 and summarized above, to ascertain the amount of hamamelitannin/bacteria necessary to potentially prevent device-associated infections, bacteria (2×10^7 MRSE or MRSA in 150 μl saline) were pre-incubated with hamamelitannin (0, 0.5, 10, 20, 30, 50 μg) for 30 min at room temperature, as noted. Grafts were implanted and rats were challenged with the pre-incubated bacteria. Seven days later the graft was removed and bacterial load determined. […] When the bacteria was treated with 0.5, 10, 20, 30 or 50 μg hamamelitannin, MRSE load was 8.4×10^3±2.2×10^3 for 0.5 μg and 8.7×10^1±6.6×10^1 for 10 μg.
# MRSA [2] = assay: Rat graft-associated infection, bacteria pre-incubated with agent, MRSA challenge; type: in vivo, S. aureus; details: for amount that could prevent an infection: infection caused by 2×10^7 CFU MRSA, rat graft
# Procedure: as §1, §2, §3
# S. aureus strain = assay: Bacterial growth in vitro / MIC; type: cell-based
# MRSE [3] = assay: Rat graft-associated infection, local treatment (graft soak), MRSE challenge; type: in vivo, S. epidermidis; details: for bacterial load on graft: day 7
# Procedure: (§4) FIG. 7 is a graph presentation of the effectiveness of bacterial graft-associated infection inhibition by hamamelitannin against challenge by MRSA and MRSE using local treatment (graft soak).
# (§5) To test if hamamelitannin could inhibit graft-associated infection, grafts (1 cm^2 collagen coated Dacron) were soaked for 1 h in increasing hamamelitannin concentrations. The graft was then implanted into the animal, and bacteria injected onto the graft. Seven days later the graft was removed and bacteria on the graft counted.
# MRSA [4] = assay: Rat graft-associated infection, local treatment (graft soak), MRSA challenge; type: in vivo, S. aureus
# Procedure: as §4, §5
# [5] = tested on: tumor necrosis factor α-mediated endothelial cell death; details: cited from earlier work
# [6] = tested on: cell damage induced by peroxides or UVB radiation; details: cited from earlier work
molecule,measurement,setting,value
"RIP: RNAIII-inhibiting peptide, sequence YSPWTNF, antagonist of RAP [reference compound]",minimal dose inhibiting RNAIII production,RNAIII,0.5 picomoles per 1000 bacteria
same,inhibition of RNAIII synthesis (in words),"RNAIII; 2×10^7 cells, 2.5 hrs",inhibited RNAIII production in a dose dependent manner
same,dose most effective in inhibiting RNAIII synthesis,"RNAIII; 2×10^7 cells, 2.5 hrs",8 μg/2×10^7 bacteria
same,dose most effective in inhibiting RNAIII synthesis,RNAIII; converted dose,0.5 picomoles/10^3 bacteria
same,reduction of cell attachment (in words),S. aureus cells,reduced cell attachment in a dose-dependent manner
same,amount most effective in reducing cell attachment,S. aureus cells,0.4 picomoles/10^3 bacteria
same,amount that could prevent an infection,MRSE [1],10 µg
same,amount that could prevent an infection,MRSA [2],10 µg
"CC1(C)S[C@@H]2[C@H](NC(=O)[C@H](N)c3ccccc3)C(=O)N2[C@H]1C(=O)O [ampicillin, reference compound]",MIC of ampicillin (reference drug),S. aureus strain; same S. aureus strain,0.2 uM per 1000 bacteria
"O=C(OC[C@H]1OC(O)[C@@](O)(COC(=O)c2cc(O)c(O)c(O)c2)[C@@H]1O)c1cc(O)c(O)c(O)c1 (stereo partly drawn) [hamamelitannin, 2′,5-di-O-galloyl hamamelose]",minimal dose inhibiting RNAIII production,RNAIII,0.2 picomoles per 1000 bacteria
same,inhibition of RNAIII synthesis (in words),"RNAIII; 2×10^7 cells, 2.5 hrs",inhibits RNAIII synthesis in a dose dependent manner
same,dose most effective in inhibiting RNAIII synthesis,"RNAIII; 2×10^7 cells, 2.5 hrs",> 2 μg/2×10^7 bacteria
same,reduction of cell attachment (in words),S. aureus cells,reduced cell attachment in a dose-dependent manner
same,amount most effective in reducing cell attachment,S. aureus cells,0.4 picomoles/10^3 bacteria
same,amount that could prevent an infection,MRSE [1],10 µg
same,amount at which no bacteria was found on graft,"MRSE [1]; rat, 2×10^7 MRSE pre-incubated 30 min, graft removed after seven days",> 20 µg
same,MRSE load on graft,"MRSE [1]; rat, 2×10^7 MRSE pre-incubated with 0.5 μg, day 7",8.4×10^3±2.2×10^3 CFU/ml
same,MRSE load on graft,"MRSE [1]; rat, 2×10^7 MRSE pre-incubated with 10 μg, day 7",8.7×10^1±6.6×10^1 CFU/ml
same,MRSE graft infection (in words),"MRSE [1]; rat, 2×10^7 MRSE pre-incubated with 20, 30 or 50 μg, day 7",No sign of infection
same,amount that could prevent an infection,MRSA [2],10 µg
same,amount at which no bacteria was found on graft,"MRSA [2]; rat, 2×10^7 MRSA pre-incubated 30 min, graft removed after seven days",> 20 µg
same,MRSA load on graft,"MRSA [2]; rat, 2×10^7 MRSA pre-incubated with 0.5 μg, day 7",8.8×10^3±2.3×10^3 CFU/mL
same,MRSA load on graft,"MRSA [2]; rat, 2×10^7 MRSA pre-incubated with 10 μg, day 7",3.6×10^2±0.8×10^2 CFU/mL
same,MRSA graft infection (in words),"MRSA [2]; rat, 2×10^7 MRSA pre-incubated with 20, 30 or 50 μg, day 7",No sign of infection
same,bacterial load on graft,"MRSE [3]; MRSE, graft pre-soaked with 0.5 mg/L",9.0×10^4±2.6×10^4 CFU/mL
same,bacterial load on graft,"MRSE [3]; MRSE, graft soaked with 10 mg/L",2.1×10^3±0.2×10^3 CFU/mL
same,bacterial load on graft,"MRSE [3]; MRSE, graft soaked with 30 or 50 mg/L",< 10 CFU/mL
same,pre-soak concentration at which grafts show no signs of infection,"MRSE [3]; challenge 2×10^7, MRSE",at least 30 mg/L and ~60 uM
same,decrease in bacterial load versus untreated control (in words),"MRSE [3]; grafts presoaked 1 h, 0-50 mg/L, MRSE",Significant (p<0.05) decrease in bacterial load
same,bacterial load on graft (in words),"MRSA [4]; MRSA, graft pre-soaked in 30 or 50 mg/L, day 7",no bacterial load was detected
same,bacterial load on graft,"MRSA [4]; MRSA, graft soaked with 0.5 mg/L, day 7",9.3×10^4±2.8×10^4 CFU/mL
same,bacterial load on graft,"MRSA [4]; MRSA, graft soaked with 10 mg/L, day 7",2.6×10^3±0.3×10^3 CFU/mL
same,bacterial load on graft,"MRSA [4]; MRSA, graft soaked with 20 mg/L, day 7",3.7×10^1±1.1×10^1 CFU/mL
same,pre-soak concentration at which grafts show no signs of infection,"MRSA [4]; challenge 2×10^7, MRSA",at least 30 mg/L and ~60 uM
same,decrease in bacterial load versus untreated control (in words),"MRSA [4]; grafts presoaked 1 h, 0-50 mg/L, MRSA",Significant (p<0.05) decrease in bacterial load
same,concentration affecting bacterial growth in vitro (no effect even at concentrations as high as),S. aureus strain; S. aureus,> 2.5 mM per 1000 bacteria
same,highest concentration without effect on growth relative to the MIC of ampicillin,S. aureus strain; same S. aureus strain,"13,000 times"
same,concentration inhibiting tumor necrosis factor α-mediated endothelial cell death,[5],less than 100 uM
same,minimum concentration with high protective activity against cell damage,[6],50 µM
